Reference: US20250320206A1, “STAT6 DEGRADERS” (Gilead Sciences, Inc., priority 2024, published 2025)

Legend:
[1] = tested on: Eotaxin-3 release in human whole blood stimulated with IL-4; test: Human Whole Blood Eotaxin-3 Assay (IL-4 stimulated eotaxin-3 release); assay type: cell-based; settings: IL-4 stimulation, 48 h, values given for compounds with >80% Emax, geometric mean
In short: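 Eotaxin-3 (CCL26) release measured by MSD kit in plasma supernatant after 48 h IL-4 stimulation ([…]) of human whole blood. Compounds added in triplicate 4-fold dilutions 2 h before stimulation; 0.5% DMSO final, 37° C, 5% CO2.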

STAT6 = target: T1, STAT6 (Homo sapiens, UniProt P42226); test: Stat6 Degrader Assay (HiBiT based, HeLa LgBiT clone 4.14); assay type: cell-based; settings: HeLa LgBiT clone 4.14 HiBiT-STAT6, 4-24 h incubation; values given for compounds with >80% Emax; geometric mean; read-out: STAT6 degradation DC50
T1 construct: These cells express endogenous STAT6; host or cells: HeLa LgBiT clone 4.14
T1 sequence (P42226 1-847): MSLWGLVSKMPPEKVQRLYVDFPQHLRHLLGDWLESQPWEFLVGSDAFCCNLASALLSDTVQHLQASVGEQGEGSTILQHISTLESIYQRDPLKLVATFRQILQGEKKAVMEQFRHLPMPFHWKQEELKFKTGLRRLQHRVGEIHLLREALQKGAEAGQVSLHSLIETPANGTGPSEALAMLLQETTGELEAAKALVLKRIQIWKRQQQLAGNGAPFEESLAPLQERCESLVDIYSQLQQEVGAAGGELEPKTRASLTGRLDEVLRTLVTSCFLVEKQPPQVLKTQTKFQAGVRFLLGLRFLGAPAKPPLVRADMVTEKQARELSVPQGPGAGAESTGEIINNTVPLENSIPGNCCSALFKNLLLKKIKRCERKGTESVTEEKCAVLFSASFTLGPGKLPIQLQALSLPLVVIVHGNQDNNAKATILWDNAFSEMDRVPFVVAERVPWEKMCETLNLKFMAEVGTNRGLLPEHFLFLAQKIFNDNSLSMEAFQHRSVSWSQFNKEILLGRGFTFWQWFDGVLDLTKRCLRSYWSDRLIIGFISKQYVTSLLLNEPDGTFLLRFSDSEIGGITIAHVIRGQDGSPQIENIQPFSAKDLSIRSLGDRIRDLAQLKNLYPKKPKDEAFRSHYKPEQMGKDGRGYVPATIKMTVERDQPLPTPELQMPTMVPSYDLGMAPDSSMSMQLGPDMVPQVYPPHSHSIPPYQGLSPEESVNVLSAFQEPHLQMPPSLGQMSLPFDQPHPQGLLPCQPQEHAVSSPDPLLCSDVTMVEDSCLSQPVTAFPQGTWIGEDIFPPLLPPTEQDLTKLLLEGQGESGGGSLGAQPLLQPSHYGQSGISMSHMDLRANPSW
In short: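 Luminescence from HiBiT-STAT6 complementing stably expressed LgBiT in HeLa clone 4.14 reports remaining STAT6 protein. Cells (5000/well) exposed to compound for 4-24 h at 37° C; read 0.5 h after Nano-Glo addition. 100% degradation window set with 50 μM terfenadine; percent degradation plotted against concentration.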

## CNc1ccn(-c2ccnc3c2cc(CN2CCC(c4c(C)cc(C(=O)N(C)c5ccc(C6CCN(Cc7ccc8c(c7)n(C)c(=O)n8C7CCC(=O)NC7=O)CC6)cc5)cc4F)CC2)n3C)c(=O)c1 (stereo not drawn) [Example 3u248, N-(4-(1-((1-(2,6-dioxopiperidin-3-yl)-3-methyl-2-oxo-2,3-dihydro-1H-benzo[d]imidazol-5-yl)methyl)piperidin-4-yl)phenyl)-3-fluoro-N,5-dimethyl-4-(1-((1-methyl-4-(4-(methylamino)-2-oxopyridin-1 (2H)-yl)-1H-pyrrolo[2,3-b]pyridin-2-yl)methyl)piperidin-4-yl)benzamide]
[1]
  EC50: 0.3 nM
STAT6
  DC50: 0.2 nM

## CNc1cc(=O)n(-c2ccnc3c2cc([C@H](C)N2CC=C(c4c(C)cc(C(=O)N5CCC(CN6CCN(Cc7ccc8c(c7)n(C)c(=O)n8[C@H]7CCC(=O)NC7=O)C[C@@H]6C)CC5)cc4F)CC2)n3C)cc1F (single isomer, unassigned) [Example 3u91]
[1]
  EC50: 1.4 nM
STAT6
  DC50: 0.6 nM

## CNc1cc(=O)n(-c2ccnc3c2cc([C@H](C)N2CC=C(c4c(C)cc(C(=O)N(C)c5ccc(C6CCN(Cc7ccc8c(c7)C(C)(C)C(=O)N8[C@@H]7CCC(=O)NC7=O)CC6)cc5)cc4F)CC2)n3C)cc1F (single isomer, unassigned) [Example 3u235]
[1]
  EC50: 1.4 nM
STAT6
  DC50: 0.1 nM

## CNc1ccn(-c2ccnc3c2cc([C@H](C)N2CC=C(c4c(C)cc(C(=O)N5CCC(CN6CCN(Cc7ccc8c(c7)C7(CC7)C(=O)N8C7CCC(=O)NC7=O)C[C@@H]6C)CC5)cc4F)CC2)n3C)c(=O)c1 (mixture of isomers) [Example 3u190, 3-(5′-(((S)-4-((1-(3-fluoro-5-methyl-4-(1-((S)-1-(1-methyl-4-(4-(methylamino)-2-oxopyridin-1 (2H)-yl)-1H-pyrrolo[2,3-b]pyridin-2-yl)ethyl)-1,2,3,6-tetrahydropyridin-4-yl)benzoyl)piperidin-4-yl)methyl)-3-methylpiperazin-1-yl)methyl)-2′-oxospiro[cyclopropane-1,3′-indolin]-1′-yl)piperidine-2,6-dione]
[1]
  EC50: 0.9 nM
STAT6
  DC50: 0.5 nM

## CNc1cc(=O)n(-c2ccnc3c2cc([C@H](C)N2CC=C(c4c(C)cc(C(=O)N5CCC(CN6CCN(Cc7ccc8c(c7)C7(CC7)C(=O)N8[C@@H]7CCC(=O)NC7=O)CC6)CC5)cc4F)CC2)n3C)cc1F (single isomer, unassigned) [Example 3u68]
[1]
  EC50: 7.8 nM
STAT6
  DC50: 1 nM

## CNc1ccn(-c2ccnc3c2cc(CN2CCC(c4c(F)cc(C(=O)N5CCC(CN6CCN(Cc7ccc8c(c7)C(C)(C)C(=O)N8[C@H]7CCC(=O)NC7=O)CC6)CC5)cc4F)CC2)n3C)c(=O)c1 (single isomer, unassigned) [Example 3u17]
[1]
  EC50: 6.3 nM
STAT6
  DC50: 6 nM

## CNc1ccn(-c2ccnc3c2cc(CN2CCC(c4c(F)cc(C(=O)N5CCC(CN6CCN(Cc7ccc8c(c7)n(C7CC7)c(=O)n8C7CCC(=O)NC7=O)C[C@@H]6C)CC5)cc4F)CC2)n3C)c(=O)c1 (stereo partly drawn) [Example 3u216, 3-(3-cyclopropyl-5-(((S)-4-((1-(3,5-difluoro-4-(1-((1-methyl-4-(4-(methylamino)-2-oxopyridin-1 (2H)-yl)-1H-pyrrolo[2,3-b]pyridin-2-yl)methyl)piperidin-4-yl)benzoyl)piperidin-4-yl)-methyl)-3-methylpiperazin-1-yl)methyl)-2-oxo-2,3-dihydro-1H-benzo[d]imidazol-1-yl)piperidine-2,6-dione]
[1]
  EC50: 1.5 nM
STAT6
  DC50: 3.5 nM

## CNc1ccn(-c2ccnc3c2cc(CN2CCC(c4c(F)cc(C(=O)N5CCC(CN6CCN(Cc7ccc8c(c7)C7(CC7)C(=O)N8[C@H]7CCC(=O)NC7=O)C[C@@H]6C)CC5)cc4F)CC2)n3C)c(=O)c1 (single isomer, unassigned) [Example 3u223]
[1]
  EC50: 1.3 nM
STAT6
  DC50: 0.9 nM

## CNc1cc(=O)n(-c2ccnc3c2cc([C@H](C)N2CC=C(c4c(C)cc(C(=O)N5CCC(CN6CCN(Cc7cc8c(cc7F)N([C@H]7CCC(=O)NC7=O)C(=O)C87CC7)CC6)CC5)cc4F)CC2)n3C)cc1F (single isomer, unassigned) [Example 3u154]
[1]
  EC50: 10.1 nM
STAT6
  DC50: 6.4 nM

## CNc1cc(=O)n(-c2ccnc3c2cc([C@H](C)N2CC=C(c4c(C)cc(C(=O)N5CCC(CN6CCN(Cc7ccc8c(c7)n(C)c(=O)n8[C@H]7CCC(=O)NC7=O)CC6)CC5)cc4F)CC2)n3C)cc1F (single isomer, unassigned) [Example 3u14]
[1]
  EC50: 1.2 nM
STAT6
  DC50: 0.6 nM

## CNc1cc(=O)n(-c2ccnc3c2cc([C@H](C)N2CC=C(c4c(C)cc(C(=O)N5CCC(CN6CCN(Cc7cc8c(cc7F)N([C@@H]7CCC(=O)NC7=O)C(=O)C87CC7)CC6)CC5)cc4F)CC2)n3C)cc1F (single isomer, unassigned) [Example 3u153]
[1]
  EC50: 8.7 nM
STAT6
  DC50: 4.1 nM

## CNc1ccn(-c2ccnc3c2cc(CN2CC=C(c4c(F)cc(C(=O)N5CCC(CN6CCN(Cc7ccc8c(c7)n(C7CC7)c(=O)n8[C@H]7CCC(=O)NC7=O)C[C@@H]6C)CC5)cc4F)CC2)n3C)c(=O)c1 (single isomer, unassigned) [Example 3u72]
[1]
  EC50: 1.9 nM
STAT6
  DC50: 4.5 nM

## CNc1ccn(-c2ccnc3c2cc(CN2CCC(c4c(F)cc(C(=O)N5CCC(CN6CCN(Cc7cc8c(cc7F)N(C7CCC(=O)NC7=O)C(=O)C87CC7)CC6)CC5)cc4F)CC2)n3C)c(=O)c1 (stereo not drawn) [Example 3u42, 3-(5′-((4-((1-(3,5-difluoro-4-(1-((1-methyl-4-(4-(methylamino)-2-oxopyridin-1 (2H)-yl)-1H-pyrrolo[2,3-b]pyridin-2-yl)methyl)piperidin-4-yl)benzoyl)piperidin-4-yl)methyl)piperazin-1-yl)methyl)-6′-fluoro-2′-oxospiro[cyclopropane-1,3′-indolin]-1′-yl)piperidine-2,6-dione]
[1]
  EC50: 13.8 nM
STAT6
  DC50: 13.2 nM

## CNc1cc(=O)n(-c2ccnc3c2cc(CN2CCC(c4c(F)cc(C(=O)N(C)c5ccc(C6CCN(Cc7ccc8c(c7)n(C)c(=O)n8C7CCC(=O)NC7=O)CC6)cc5)cc4F)CC2)n3C)cc1F (stereo not drawn) [Example 3u245, N-(4-(1-((1-(2,6-dioxopiperidin-3-yl)-3-methyl-2-oxo-2,3-dihydro-1H-benzo[d]imidazol-5-yl)methyl)piperidin-4-yl)phenyl)-3,5-difluoro-4-(1-((4-(5-fluoro-4-(methylamino)-2-oxopyridin-1 (2H)-yl)-1-methyl-1H-pyrrolo[2,3-b]pyridin-2-yl)methyl)piperidin-4-yl)-N-methylbenzamide]
[1]
  EC50: 0.1 nM
STAT6
  DC50: 0.1 nM

## CNc1cc(=O)n(-c2ccnc3c2cc([C@H](C)N2CC=C(c4c(C)cc(C(=O)N5CC=C(CC6CCN(c7ccc8c(c7)C7(CC7)C(=O)N8C7CCC(=O)NC7=O)CC6)CC5)cc4F)CC2)n3C)cc1F (stereo partly drawn) [Example 3u20, 3-(5′-(4-((1-(3-fluoro-4-(1-((S)-1-(4-(5-fluoro-4-(methylamino)-2-oxopyridin-1 (2H)-yl)-1-methyl-1H-pyrrolo[2,3-b]pyridin-2-yl)ethyl)-1,2,3,6-tetrahydropyridin-4-yl)-5-methyl-benzoyl)-1,2,3,6-tetrahydropyridin-4-yl)methyl)piperidin-1-yl)-2′-oxospiro[cyclopropane-1,3′-indolin]-1′-yl)piperidine-2,6-dione]
[1]
  EC50: 11.7 nM
STAT6
  DC50: 4.7 nM
